Test results reported in publication PMC7918538 (Pharmaceuticals, 2021).
In brackets after ≈: the same amount, converted by molar mass. Several values for one entry are separate records, joined by “and”; a condition that tells them apart may be missing. Equal entries are not always repeated. Where two headings read alike, the source gives them in different places.

Experiments:
[1] = biological target: T1, Recombinant M. tuberculosis MbtI (Mycobacterium tuberculosis, UniProt P9WFX1); test: MbtI enzymatic inhibition assay (fluorimetric, salicylic acid formation); format: biochemical; details: for activity against MbtI (in words): discussion of Table 1
T1 construct: made in house
Procedure: Recombinant M. tuberculosis MbtI was produced and purified as previously reported. Enzyme activity was determined at 37 °C, measuring the formation of salicylic acid by a fluorimetric assay, slightly modified from Vasan et al.. Briefly, the reactions were performed in a final volume of 400 μL of 50 mM Hepes pH 7.5, 5 mM MgCl2, containing 1-2 μM MbtI, by the addition of chorismic acid, and monitored using a Perkin-Elmer LS3 fluorimeter (Ex. λ = 305 nm, Em. λ = 420 nm). Inhibition assays were performed in the presence of the compound at 100 µM (stock solution 20 mM in DMSO) and 50 µM chorismic acid. Where possible, compounds were tested both as free acids and sodium salts, providing analogous results. […] To this end, the activity was measured at different compound concentrations, and values were calculated according to Equation (1), with Origin 8 software:(1) A[I] = A[0] × (1 −[I]/[I] + IC50) where A[I] is the activity at inhibitor concentration [I] and A[0] is the activity in the absence of the inhibitor.
The Ki was determined at different substrate [S] and compound concentrations, using Equation (2):(2) v = Vmax[S]/[S] + Km (1 + [I]/Ki)

M. bovis BCG [2] = test: microbe, parasite or virus in culture; format: cell-based
M. bovis BCG [3] = details: previous lead I given for comparison; cited from earlier work
[4] = biological target: T1, Recombinant M. tuberculosis MbtI; details: cited from earlier work; for %RA (% residual enzymatic activity at 100 µM): previous furan leads I and II shown in Table 1 for comparison
eukaryotic cells = system: eukaryotic cells; parameters: method as in PMID 32530281, PMID 30889995, PMID 29940465, PMID 29933627; details: previous leads; cited from earlier work
[5] = Series A R = m-CNPh, compound 100 µM, 50 µM chorismic acid, read-out: %RA (% residual enzymatic activity at 100 µM)
[6] = Series B R = p-NO2Ph, compound 100 µM, 50 µM chorismic acid, read-out: %RA (% residual enzymatic activity at 100 µM)
[7] = Table 2, furans IV–IX, compound 100 µM, 50 µM chorismic acid, read-out: % RA (% residual enzymatic activity at 100 µM)
[8] = Table 2, furans IV–IX, only for compounds with %RA ≤ 25%, read-out: IC50
[9] = Series A R = m-CNPh, only for compounds with %RA ≤ 25%, read-out: IC50
[10] = compound 100 µM, rounded value, read-out: % residual enzymatic activity (%RA) at 100 µM
[11] = rounded value, read-out: IC50 against MbtI
[12] = Series B R = p-NO2Ph, only for compounds with %RA ≤ 25%, read-out: IC50

T1 sequence (P9WFX1 whole entry): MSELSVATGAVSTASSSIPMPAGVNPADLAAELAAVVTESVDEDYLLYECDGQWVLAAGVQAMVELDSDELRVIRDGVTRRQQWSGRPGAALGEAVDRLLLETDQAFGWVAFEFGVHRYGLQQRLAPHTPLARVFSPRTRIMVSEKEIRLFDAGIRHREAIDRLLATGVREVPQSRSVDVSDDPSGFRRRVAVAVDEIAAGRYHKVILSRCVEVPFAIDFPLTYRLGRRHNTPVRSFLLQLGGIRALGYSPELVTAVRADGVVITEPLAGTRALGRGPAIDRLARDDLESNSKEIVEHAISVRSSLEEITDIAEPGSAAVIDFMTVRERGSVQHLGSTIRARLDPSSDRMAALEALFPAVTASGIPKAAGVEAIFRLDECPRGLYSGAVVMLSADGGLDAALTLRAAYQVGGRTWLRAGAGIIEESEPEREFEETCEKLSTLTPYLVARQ

## N#Cc1cccc(-c2cnc(C(=O)[O-])o2)c1.[Na+] [3a, Sodium 5-(3-cyanophenyl)oxazole-2-carboxylate]
[1]; [5]
  remaining activity at 100 µM: 38 ± 7.6%
[1]
  activity against MbtI (in words): negligible activity
other
  melting point: > 300 °C (dec.)

## O=C(O)c1cn(-c2ccc([N+](=O)[O-])cc2)nn1 [6b, 1-(4-Nitrophenyl)-1H-1,2,3-triazole-4-carboxylic acid]
[1]; [6]
  remaining activity at 100 µM: 32.7 ± 7.8%
other
  melting point: 175 °C

## N#Cc1cc(F)cc(-c2ccc(C(=O)O)o2)c1 [VI, 5-(3-cyano-5-fluorophenyl)furan-2-carboxylic acid]
[1]; [7]
  remaining activity at 100 µM: 8.7 ± 1.4%
[1]; [8]
  IC50: 17.3 ± 3.1 µM

## N#Cc1cccc(-c2ccc(C(=O)O)s2)c1 [1a, 5-(3-Cyanophenyl)thiophene-2-carboxylic acid]
[1]; [5]
  remaining activity at 100 µM: 23.7 ± 5%
[1]; [9]
  IC50: 35.5 ± 1.9 µM
[1]; [10]
  remaining activity at 100 µM: ~23%
other
  melting point: 207 °C

## N#Cc1cc(-c2ccc(C(=O)O)o2)cc(C(F)(F)F)c1 [IV, 5-(3-Cyano-5-(trifluoromethyl)phenyl)furan-2-carboxylic acid]
[1]; [7]
  remaining activity at 100 µM: 0.7 ± 2.7%
[1]; [8]
  IC50: 15.5 ± 3.1 µM
[1]; kinetic analysis at different chorismic acid and compound concentrations
  Ki: 9.2 µM and ~9 µM
[1]; read-out: % residual enzymatic activity (%RA) at 100 µM
  remaining activity at 100 µM: ~1%
[1]; [11]
  IC50: ~15 µM
[1]; steady-state kinetics towards chorismic acid
  nature of inhibition against MbtI: competitive inhibitor
M. bovis BCG [2]; M. bovis BCG, iron-limiting conditions (chelated Sauton's medium), REMA
  MIC99: 125 µM (≈ 35.1 µg/mL)
M. bovis BCG [2]; Mycobacterium tuberculosis variant bovis BCG, BCG
  MIC99: 125 µM (≈ 35.1 µg/mL)

## O=C(O)c1ncc(-c2ccc([N+](=O)[O-])cc2)[nH]1 [4b, 5-(4-Nitrophenyl)-1H-imidazole-2-carboxylic acid]
[1]; [6]
  remaining activity at 100 µM: 18.2 ± 4.9%
[1]; [12]
  IC50: 27.5 ± 2.3 µM
[1]
  activity against MbtI (in words): weak activity
other
  melting point: 137 °C

## Cc1cc(C#N)cc(-c2ccc(C(=O)O)o2)c1 [VIII, 5-(3-cyano-5-methylphenyl)furan-2-carboxylic acid]
[1]; [7]
  remaining activity at 100 µM: 16.7 ± 3.8%
[1]; [8]
  IC50: 29.1 ± 1.8 µM
[1]; [11]
  IC50: ~29 µM

## N#Cc1cc(O)cc(-c2ccc(C(=O)O)o2)c1 [IX, 5-(3-cyano-5-hydroxyphenyl)furan-2-carboxylic acid]
[1]; [7]
  remaining activity at 100 µM: 15.3 ± 2.6%
[1]; [8]
  IC50: 33.5 ± 3.4 µM
[1]; [11]
  IC50: ~33 µM

## N#Cc1cccc(-n2cc(C(=O)O)nn2)c1 [6a, 1-(3-Cyanophenyl)-1H-1,2,3-triazole-4-carboxylic acid]
[1]; [5]
  remaining activity at 100 µM: 67.9 ± 6.6%

## N#Cc1cccc(-c2nnc(C(=O)O)o2)c1 [5a, 5-(3-Cyanophenyl)-1,3,4-oxadiazole-2-carboxylic acid]
[1]; [5]
  remaining activity at 100 µM: 75 ± 9.8%
other
  melting point: 222 °C (dec.)

## O=C(O)c1nnc(-c2ccc([N+](=O)[O-])cc2)o1 [5b, 5-(4-Nitrophenyl)-1,3,4-oxadiazole-2-carboxylic acid]
[1]; [6]
  remaining activity at 100 µM: 59 ± 4.3%
other
  melting point: 220 °C (dec.)

## O=C(O)c1ccc(-c2ccc([N+](=O)[O-])cc2)s1 [1b, 5-(4-Nitrophenyl)thiophene-2-carboxylic acid]
[1]; [6]
  remaining activity at 100 µM: 22.5 ± 10.8%
[1]; [12]
  IC50: 18.6 ± 1.7 µM
[1]; [10]
  remaining activity at 100 µM: ~23%
other
  melting point: 189 °C

## O=C([O-])c1ncc(-c2ccc([N+](=O)[O-])cc2)o1.[Na+] [3b, Sodium 5-(4-nitrophenyl)oxazole-2-carboxylate]
[1]; [6]
  remaining activity at 100 µM: 23 ± 7.8%
[1]; [12]
  IC50: 21.1 ± 2.7 µM
[1]
  activity against MbtI (in words): modest activity
other
  melting point: > 300 °C (dec.)

## O=C(O)c1ccc(-c2cc(C(F)(F)F)cc(C(F)(F)F)c2)o1 [V, 5-(3,5-Bis(trifluoromethyl)phenyl)furan-2-carboxylic acid]
[1]; [7]
  remaining activity at 100 µM: 8.9 ± 1.6%
[1]; [8]
  IC50: 18.8 ± 6.8 µM
[1]; [11]
  IC50: ~19 µM

## N#Cc1cccc(-c2ccc(C(=O)O)o2)c1 [I]
M. bovis BCG [3]
  MIC99: 250 µM (≈ 53.3 µg/mL)
[4]
  %RA (% residual enzymatic activity at 100 µM): 3.1 ± 1.0%
Eukaryotic cells
  cytotoxicity towards eukaryotic cells (in words): negligible cytotoxicity

## O=C([O-])c1ncc(-c2ccc([N+](=O)[O-])cc2)s1.[Na+] [2b, Sodium 5-(4-nitrophenyl)thiazole-2-carboxylate]
[1]; [6]
  remaining activity at 100 µM: 32.8 ± 2.3%
[1]
  activity against MbtI (in words): weaker inhibitors
other
  melting point: > 300 °C (dec.)

## O=C(O)c1ccc(-c2ccc([N+](=O)[O-])cc2)o1 [II]
[4]
  %RA (% residual enzymatic activity at 100 µM): 18.2 ± 5.1%
Eukaryotic cells
  cytotoxicity towards eukaryotic cells (in words): negligible cytotoxicity

## N#Cc1cccc(-c2cnc(C(=O)[O-])s2)c1.[Na+] [2a, Sodium 5-(3-cyanophenyl)thiazole-2-carboxylate]
[1]; [5]
  remaining activity at 100 µM: 24.8 ± 1.8%
[1]; [9]
  IC50: 41.9 ± 7.3 µM
[1]
  activity against MbtI (in words): weaker inhibitors
other
  melting point: > 300 °C (dec.)

## COc1cc(C#N)cc(-c2ccc(C(=O)O)o2)c1 [VII, 5-(3-Cyano-5-methoxyphenyl)furan-2-carboxylic acid]
[1]; [7]
  remaining activity at 100 µM: 10.5 ± 3.9%
[1]; [8]
  IC50: 14.5 ± 2.1 µM
[1]
  activity against MbtI (in words): comparable IC50 with respect to IV

## N#Cc1cc(C(F)(F)F)ccc1-c1ccc(C(=O)O)o1 [5-(2-cyano-4-(trifluoromethyl)phenyl)furan-2-carboxylic acid]
[4]; previously published disubstituted furans, read-out: IC50 against MbtI
  IC50: ~18 µM

## N#Cc1cccc(-c2cnc(C(=O)O)[nH]2)c1 [4a, 5-(3-Cyanophenyl)-1H-imidazole-2-carboxylic acid]
[1]; [5]
  remaining activity at 100 µM: 21.2 ± 1%
[1]; [9]
  IC50: 39.3 ± 3 µM
[1]
  activity against MbtI (in words): weak activity
other
  melting point: 165 °C

## O=C(O)c1ccc(-c2ccccc2)o1 [III]
[4]; removal of the substituent from the phenyl ring
  MbtI activity (in words): complete loss of activity
